Consider 36 compounds from PubChem BioAssay (NCI).

The structures appear in SMILES notation. Values joined by “and” are separate entries in the source; they are usually repeats but may differ in a detail not shown here. Identical values can stand only once.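 Cells were grown in 96-well plates and exposed to each compound for 48 hours at five concentrations; endpoints were interpolated linearly between bracketing concentrations, or set to the highest concentration if not reached. GI50 is the concentration that inhibits growth by half. TGI: total growth inhibition.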 Where only a bound is given, the exact number is not on record here.

The test system of the test is MDA-MB-468 breast. The experiment in a line: NCI-60 cell line screen, 48 h.

As to `Clc1nc2ccccc2nc1CI`, the GI50 was 2990 nM and the TGI was found to be 8.67 µM.
For `CCn1c(-c2nonc2N)nc2c(C#CC(C)(C)O)nc(OC[C@H](N)c3ccccc3)cc21` the same measures were 2950 nM and 6.73 µM.
For `O=C1NC(=O)C(c2cnc3ccccn23)=C1c1cn2c3c(cc(F)cc13)CN(C(=O)N1CCCCC1)CC2` the same measures were 4470 nM and 29.9 µM.
Turning to `Cn1nc(N)c2cc([C@@H]3Nc4ccc5[nH]ncc5c4[C@H]4C5CCC(C5)[C@@H]34)ccc21` (some centres not stated), the GI50 was 235 nM and the TGI was 3.34 µM.
With `N#CC(=C1C=CC(=NO)C=C1)c1ccccc1`, the GI50 is 289 nM and the TGI came out at 2.86 µM.
On to `O=C(CNc1ccc(Cl)cc1)Nc1ccc(-c2nc3ccccc3s2)cc1`, for which the GI50 is 37.5 nM and the TGI came out at 0.386 µM.
Take `O=C1/C(=C/c2ccc(Br)cc2)COc2ccc(O)c(O)c21`: the GI50 is 1370 nM and the TGI came to 3.2 µM.
As for `CCN(CC)CCC(CNc1ccnc2cc(Cl)ccc12)c1ccc(OC)cc1` (configuration not stated), the GI50 is 1990 nM; the TGI was 4.77 µM and 5.3 µM.
In the case of `C=COCCCOc1ccccc1`, the GI50 was more than 100000 nM and the TGI is more than 100 µM.
In the case of `CCC(C)n1ncn(-c2ccc(N3CCN(c4ccc(OCC5COC(Cn6cncn6)(c6ccc(Cl)cc6Cl)O5)cc4)CC3)cc2)c1=O` (configuration not stated), the GI50 was 7070 nM and the TGI was more than 100 µM.
For `CCN(CC)CCOc1ccc(-c2nc3cc(Cl)ccc3s2)cc1` the same measures were 1160 nM and 2.46 µM.
The corresponding values for `CCN(CC)c1ccc2c(c1)OC(N)=C(C#N)C2c1cc(OC)c2c(c1)OCO2` (configuration not stated) are 32.8 nM and 2.97 µM.
Regarding `CCN(CC)CCCC(CNc1ccnc2cc(Cl)ccc12)c1ccc(Cl)cc1` (configuration not stated), the GI50 is 992 nM and 419 nM; the TGI was 2.55 µM and 1.49 µM.
With `[Cl][Hg][c]1cc(Br)cc(Br)c1`, the GI50 is 1370 nM and the TGI came out at 3.02 µM.
The corresponding values for `O=C(Nc1nc2ccc(C(F)(F)F)cc2s1)c1cc(Cl)ccc1O` are 1400 nM and 13.7 µM.
The corresponding values for `CN1CCN(CCOc2ccc(-c3cnc4c(-c5ccccc5F)cnn4c3)cc2)CC1` are 1650 nM and 3.36 µM.
The corresponding values for `NC(=O)c1c(NC(=O)c2ccc(C3CCCCC3)cc2)sc2c1CCC(=O)C2` are 297 nM and 1.43 µM.
Take `CCCCCCCCCCCCCC1=NC(C)(C)CN1C(C)C`: the GI50 was 1520 nM and the TGI was 2.94 µM.
For `COc1ccc(C(C)=O)cc1N1C(=O)C2C(C1=O)C1(c3ccccc3)C(=O)C2(c2ccccc2)C(c2ccc(C)cc2)=C1c1ccc(C)cc1` (configuration not stated) the same measures were more than 100000 nM and more than 100 µM.
Regarding `COc1cc(C2CC(c3cccc(Br)c3)=NN2C(C)=O)cc(OC)c1OC` (configuration not stated), the GI50 is 215 nM and the TGI is more than 100 µM.
The corresponding values for `CC(C)=CC/C=C(/C)[C@H]1CC[C@]2(C)[C@@H]1CC[C@@H]1[C@@]3(C)CCCNC(C)(C)[C@@H]3CC[C@]12C` are 1710 nM and 3.25 µM.
For `CS(=O)c1nccc(-c2c(-c3ccc(F)c(OCc4ccc(F)cc4)c3)nc3sccn23)n1` (configuration not stated) the same measures were 1950 nM and 4.33 µM.
For `COc1ccc(/C=C(/C(=O)N2CCN(c3ccccc3)CC2)c2cc(OC)c(OC)c(OC)c2)cc1O` the same measures were 575 nM and more than 100 µM.
As to `CCCCCCNC(=O)c1cc(NCc2cc(O)ccc2O)ccc1O`, the GI50 was 6530 nM and the TGI worked out at 28.9 µM.
The corresponding values for `CC(C)CCN1c2nc(Nc3cc(F)c(O)c(F)c3)ncc2N(C)C(=O)C1C` (configuration not stated) are 5020 nM and 23.9 µM.
The corresponding values for `N#Cc1c(NN)n(C2OC(CO)C(O)C2O)c2ncnc(N)c12` (configuration not stated) are 10.5 nM and 0.0594 µM.
For `COc1ccc(CN2C(=O)/C(=C\C(=O)c3ccc(OCCN4CCCCC4)cc3)c3ccccc32)cc1` the same measures were 1700 nM and 3.68 µM.
On to `Cc1ccc(C)c(C2=C(c3cn(C)c4ccccc34)C(=O)NC2=O)c1`, for which the GI50 was 24300 nM and the TGI was more than 25 µM.
Consider `O=C(Nc1ccc(Cl)cc1F)c1ccccc1O`, for which the GI50 was 2310 nM and the TGI stood at 6.42 µM.
The corresponding values for `C=C1CC[C@@H]2[C@](C)(COC(C)=O)[C@H](OC(C)=O)CC[C@@]2(C)[C@@H]1CC(Sc1ccccc1)C1=CCOC1=O` (some centres not stated) are 1410 nM and 3.26 µM.
The corresponding values for `O=C(Cc1ccc(/C=C/C(=O)c2ncc[nH]2)cc1)Nc1cc(F)c(F)c(F)c1` are 1110 nM and 4.53 µM.
For `Cn1c2ccccc2c2c3c(c4c5cc(Br)ccc5n(C)c4c21)C(=O)N(O)C3=O` the same measures were 213 nM and 0.51 µM.
Turning to `CCN1CCN(C(c2ccc(C(F)(F)F)cc2)c2ccc3cccnc3c2O)CC1` (configuration not stated), the GI50 is 2480 nM and the TGI came to 6.48 µM.
For `COc1ccc(CCOc2cc3c(cc2OC)CCN(C(=O)NCc2cocn2)C3c2ccc(C)cc2C)cc1` (configuration not stated) the same measures were 289 nM and 1.3 µM.
The corresponding values for `CC(C)=CCNc1ncnc2c1ncn2C1OC(CO)C(O)C1O` (configuration not stated) are 370 nM and 1.78 µM.
As to `Cc1nc2c(-c3cnc(N)nc3)nc(N3CCOCC3)nc2n1C(C)C`, the GI50 is 105 nM and 73.4 nM; the TGI was 0.647 µM and 0.398 µM.
